# According to patent US20050054629A1, “Compounds and methods of treating cell proliferative diseases” (priority 2002, published 2005):
# pIC50: −log10 of the molar value. Where two headings read alike, the source gives them in different places.
# Assays:
# HCT116 = assay: Cell viability assay (MTT), Example 32; assay type: cell-based, human; settings: Homo sapiens, HCT-116, 144 h; day 6, 10% FBS
# Description: FIG. 7: Antiproliferative effect of compounds on HCT116 (top) and MDA-MB-231 (bottom) cell lines measured by MTT viability assay. 2.5 10^3 (HCT116) or 7.5 10^3 (MDA-MB-231) cells were seeded in 48-well plates in growth medium containing 10% FBS, with or without various concentrations of test compounds. Cell cultures were fed every 3 days with the appropriate media. Cell viability was determined on day 6. Data were analyzed and IC50s were calculated from the dose-response curves using GraphPad Prism.
# In order to determine one compound effect on cell viability, microculture tetrazolium assay (MTT) was performed as described by Carmichael et al., (1996) with modifications. Four human tumoral cell lines, namely HCT116 colon adenocarcinoma, H460 lung carcinoma, MCF-7 and MDA-MB-231 breast carcinoma cell lines, and 3 immortalized but non tumorigenic cell lines, namely NIH3T3 mouse fibroblasts and human breast-derived MCF10-A and human lung-derived MRC-5 were purchased at ATCC and cultured according to their recommendations. Briefly, 2.5 10^3 to 2 10^4 cells per well were seeded in 48-well plates 24 hours before drug addition. Cells were treated with 0 to 200 μM (11 concentrations) of compound solubilized in DMSO, adjusting the final concentration of DMSO to 1% in the well. Six days after treatment, the medium was replaced by PBS containing 0.5 mg/ml MTT (Sigma) and cells were incubated for 1-3 hours at 37° C. before solubilization of formazan crystals in 100% DMSO. Absorbance was measured using a spectrophotometer at a wavelength of 550 nm. Data was analyzed using the GraphPad Prism software (GraphPad Software, Inc., San Diego, USA), and IC50 (dose leading to 50% cell death) was calculated from the dose-response curves.
# HCT116 cells = assay: Anchorage-independent cell growth assay in soft agar, Example 32; assay type: cell-based, human; settings: 7 days
# Description: FIG. 8: Effect of the treatment of HCT116 cells with the compounds on the size of the clones grown in soft agar. 5 10^3 cells were seeded in 24-well plates in 0.3% agar-containing medium supplemented with the designated amount of compounds. After 7 days of incubation at 37° C., pictures were taken of each well and were analyzed using the ImageJ image analysis software. In particular, clone size and number were calculated. The data were analyzed using GraphPad Prism, and IC50 was calculated.
# In order to evaluate the effect of one compound on the capacity of tumour cells to grow without anchorage, HCT116 cells were seeded in soft agar. In contrast to microplate assays which average the drug's effects over an entire cell population, clonogenic assays offer the possibility of distinguishing cytotoxic agents (i.e., decreased colony number) from cytostatic agents (i.e., decreased colony size without decreased colony number; Murphy M. J. et al., 1996).
# Briefly, 5 10^3 HCT116 cells were resuspended in 300 pi of complete medium containing 0.3% soft-agar (Difco) and different concentrations of compound (8 concentrations ranging from 0 to 30 μM). Cells were then poured on a solidified layer of medium containing 0.5% of soft agar plus the compound at the same concentration as in the upper layer. Cells were incubated for 7 days' at 37° C. before pictures of each well were taken using a phase contrast microscope (Nikon) and a digital camera (Nikon Coolpix 990). Pictures were subsequently analyzed using a free image analysis software from the NIH (ImageJ) allowing to determine clones size and number.
# Data was analyzed using the GraphPad Prism software, and IC50 (dose leading to a 50% decrease of clone size or number) was calculated from dose-response curves. The ratio IC50 clone size/IC50 clone number was then calculated. When this ratio is equal to 1 (IC50 size=IC50 number), the compound is referred to as “cytotoxic”. When the ratio is close to 0 (IC50 size<<IC50 number), the compound is referred to as “cytostatic” (FIG. 6).
# H460 lung carcinoma = assay: Cytotoxicity assay (MTT), 6 days; assay type: cell-based; settings: Homo sapiens, NCI-H460, 144 h, 6 days of treatment, read-out: Toxicity 6d (IC 50, μM) H460
# Description: (§1) Four human tumoral cell lines, namely HCT116 colon adenocarcinoma, H460 lung carcinoma, MCF-7 and MDA-MB-231 breast carcinoma cell lines, and three immortalized but non tumorigenic cell lines, namely NIH3T3 mouse fibroblasts and human breast-derived MCF10-A and MRC-5 were purchased at ATCC and cultured according to their recommendations. In order to determine the cytotoxicity associated with one compound, a microculture tetrazolium assay (MTT), as described by Carmichael et al (Cancer Res, 1996) with modifications, was used. Briefly, 5.10^3 or 2.10^4 cells were seeded per well in 24-well plates 24 hours before drug addition. Cells were treated with 0, 1, 10, 17.5, 25 and 50 μM of compound solubilized in DMSO, adjusting the total volume of DMSO (Dimethylsulfoxide) to 1%. Forty-eight hours or 6 days after treatment, the medium was replaced by PBS containing 0.5 mg/ml MTT (Sigma) and cells were incubated for 3 more hours at 37° C. before solubilization of formazan crystals in 100% DMSO. Absorbance was measured using a spectrophotometer at a wavelength of 550 nm. Cell surviving fraction and 50% inhibitory concentration were calculated. All assays were performed in triplicate.
# MCF-7 breast carcinoma = assay: Cytotoxicity assay (MTT), 6 days; assay type: cell-based; settings: Homo sapiens, MCF7, 144 h, 6 days of treatment, read-out: Toxicity 6d (IC 50, μM) MCF7
# Description: as §1
# [1] = test system: MDA-MB-231 breast carcinoma; assay: Cytotoxicity assay (MTT), 6 days; assay type: cell-based; settings: Homo sapiens, MDA-MB-231, 144 h, 6 days of treatment, read-out: Toxicity 6d (IC 50, μM) MDA231
# Description: as §1
# [2] = test system: HCT116 colon adenocarcinoma; assay: Cytotoxicity assay (MTT), 6 days; assay type: cell-based, human; settings: 6 days of treatment, read-out: Toxicity 6d (IC 50, μM) HCT116
# Description: as §1
# MDA-MB-231 cells = assay: Matrigel invasion assay (Boyden chamber); assay type: cell-based, human; settings: for Invasion: MDA-MB-231, Boyden chamber, matrigel
# Description: Chemoinvasion assay was performed in Boyden chamber as described by Albini et al (Cancer Res, 1987) with some modifications. Polycarbonate membranes with 8 μm pores were coated with matrigel (125 μg/cm^2) at room temperature for 48 h. Two hours before experiments, the matrix was […] with serum-free medium containing 0.1% BSA.
# One day after seeding, 10^6 MDA-MB-231 cells were treated overnight with different concentrations of compounds (1, 10, 17.5, 25 and 50 μM). Cells were collected with Versene (Invitrogen), counted with trypan blue exclusion, rinsed twice in serum-free medium containing 0.1% BSA and resuspended in serum-free medium containing 0.1% BSA plus the appropriate concentration of compound. 10^5 treated cells were placed in the upper chamber. Medium containing 10% of FBS plus the appropriate concentration of compound was placed in the lower chamber as a chemoattractant. The Boyden chamber was incubated 6 hours at 37° C. before the cells were fixed and stained with Diff-Quick (Dade-Berhing). Cells on the upper part of the filters were removed using a cotton swab. Cells on the underside of the filters were visualised and counted under light microscope.
# cell architecture = assay: Cell architecture modification, phase contrast; assay type: cell-based; parameters: key: −: no effect of the compound was observed; +: an effect of the compound was observed
# MDA231 = assay: Cytoskeleton analysis, actin staining (FITC-phalloidin); assay type: cell-based, human; settings: 24 h treatment
# Description: Since major rearrangements of cytoskeleton are observed in tumor cells and since the small GTPases are known to regulate these events, analysis of actin cytoskeleton was performed. Subconfluent cells seeded onto coverslips were treated with different concentration of compound (1, 10, 17.5, 25 and 50 μM) or vehicle for 24 h, before being fixed in 4% formaldehyde for 15 min., permeabilized in 0.2% Triton X100 for 5 minutes and incubated in PowerBlock (Biogenex) for 10 min. Actin filaments were stained with 0.5 μg/ml fluorescein isothiocyanate (FITC)-labelled phalloidin for 1 hour. Analysis was performed using an inverted fluorescent microscope.
# MCF10-A = assay: Cytotoxicity assay (MTT), 6 days; assay type: cell-based; settings: Homo sapiens, MCF-10A, 144 h, 6 days of treatment, read-out: Toxicity 6d (IC 50, μM) MCF10-A
# Description: as §1
# MRC-5 = assay: Cytotoxicity assay (MTT), 6 days; assay type: cell-based; settings: Homo sapiens, MRC5, 144 h, 6 days of treatment, read-out: Toxicity 6d (IC 50, μM) MRC-5
# Description: as §1
# NIH3T3 mouse fibroblasts = assay: Cytotoxicity assay (MTT), 6 days; assay type: cell-based; settings: NIH3T3, 144 h, 6 days of treatment, read-out: Toxicity 6d (IC 50, μM) NIH3T3
# Description: as §1
structure (smiles),measurement,setting,value
"Cc1cc2ccccc2n1CCCCCOc1coc(COC2CCCCO2)cc1=O (stereo not drawn) [EHT 2427, 5-[5-(2-Methyl-indol-1-yl)-pentyloxy]-2-(tetrahydro-pyran-2-yloxymethyl)-4H-pyran-4-one]",pIC50,HCT116,5.40 to 5.82
same,IC50 anchorage-independent growth of HCT116 (clone size) in soft agar,HCT116 cells,micromolar range
"CCCc1cc(Cl)c(Cl)cc1OCCCCCOc1coc(CO)cc1=O [EH30701, 5-[5-(4,5-Dichloro-2-propylphenyloxy)pentyloxy]-2-(hydroxymethyl)-4H-pyran-4-one]",IC50,H460 lung carcinoma,15 µM
same,IC50,MCF-7 breast carcinoma,20 µM
same,IC50,[1],15 µM
same,IC50,[2],8 µM
same,IC50,"[2]; Homo sapiens, HCT-116, 144 h",≤ 15 µM
same,concentration giving significant inhibition of invasive properties of MDA-MB-231 cells,MDA-MB-231 cells,17.5 µM
same,Invasion,MDA-MB-231 cells,Decrease
same,Cell architecture modification phase contrast,cell architecture,−
same,Cell architecture modification actin staining MDA231,MDA231,cell spreading
"O=c1cc(COC2CCCCO2)occ1OCCCCCn1ccc2ccccc21 (stereo not drawn) [EHT 7395, 5-(5-Indol-1-yl-pentyloxy)-2-(tetrahydro-pyran-2-yloxymethyl)-4H-pyran-4-one]",pIC50,HCT116,5.40 to 5.82
same,IC50 anchorage-independent growth of HCT116 (clone size) in soft agar,HCT116 cells,micromolar range
"CCCc1c(OCCCCCCCOc2coc(CO)cc2=O)ccc(Cl)c1Cl [EH17701, 5-[7-(3,4-Dichloro-2-propylphenyloxy)heptyloxy]-2-(hydroxymethyl)-4H-pyran-4-one]",IC50,H460 lung carcinoma,5 to 10 µM
same,IC50,MCF-7 breast carcinoma,15 µM
same,IC50,MCF10-A,> 50 µM
same,IC50,[1],35 µM
same,IC50,MRC-5,17.5 µM
same,concentration giving significant inhibition of invasive properties of MDA-MB-231 cells,MDA-MB-231 cells,17.5 µM
same,Cell architecture modification phase contrast,cell architecture,−
same,Cell architecture modification actin staining MDA231,MDA231,cell spreading
"O=c1cc(COC2CCCCO2)occ1OCCCCCn1ccc2cc(F)ccc21 (stereo not drawn) [EHT 0533, 5-[5-(5-Fluoro-indol-1-yl)-pentyloxy]-2-(tetrahydro-pyran-2-yloxymethyl)-4H-pyran-4-one]",pIC50,HCT116,5.40 to 5.82
same,IC50 anchorage-independent growth of HCT116 (clone size) in soft agar,HCT116 cells,micromolar range
"O=c1cc(COCc2ccccc2)occ1OCCCCCOc1ccc(Cl)c(Cl)c1 [EH7701, 2-(Benzyloxymethyl)-5-[5-(3,4-dichlorophenyloxy)pentyloxy]-4H-pyran-4-one]",IC50,H460 lung carcinoma,6 µM
same,IC50,MCF-7 breast carcinoma,17.5 µM
same,IC50,MCF10-A,> 50 µM
same,IC50,[1],22.5 µM
same,IC50,MRC-5,20 µM
same,IC50,NIH3T3 mouse fibroblasts,40 µM
same,IC50,[2],7.5 µM
same,IC50,"[2]; Homo sapiens, HCT-116, 144 h",≤ 15 µM
same,Invasion,MDA-MB-231 cells,No effect
same,Cell architecture modification phase contrast,cell architecture,−
same,Cell architecture modification actin staining MDA231,MDA231,cell spreading
CCCc1c(OCCCCCCOc2coc(CO)cc2=O)ccc(Cl)c1Cl [EH16701],IC50,H460 lung carcinoma,7 µM
same,IC50,MCF-7 breast carcinoma,15 µM
same,IC50,MCF10-A,> 50 µM
same,IC50,[1],47.5 µM
same,IC50,MRC-5,> 50 µM
same,IC50,NIH3T3 mouse fibroblasts,> 50 µM
same,IC50,[2],8.5 µM
same,IC50,"[2]; Homo sapiens, HCT-116, 144 h",≤ 15 µM
same,Invasion,MDA-MB-231 cells,No effect
same,Cell architecture modification phase contrast,cell architecture,−
same,Cell architecture modification actin staining MDA231,MDA231,cell spreading
